Measured values from patent US20160367622A1, “AGONISTS OF GUANYLATE CYCLASE USEFUL FOR THE TREATMENT OF OPIOID INDUCED DYSFUNCTIONS” (priority 2013, published 2016).
Entries after “also recorded” stand apart in the source; their conditions may differ. Like-named read-outs stand apart in the source and are kept apart here. Positions of bridges follow the written chain, without caps; N, C: chain ends. Non-standard residues stand in square brackets, D forms with d. Residues, ends and D or L forms follow the SMILES beside them.

Columns and labels:
[1] = test system: female Sprague-Dawley rats; assay: methadone-induced delay in rat GI transit (charcoal meal); type: in vivo; details: 2.5 mg/kg methadone IP
Protocol: (§1) Animals: All study procedures were conducted under a study outline approved by the Institutional Animal Care and Use Committee of MB Research Labs (Spinnerstown, Pa.) or Lampire Biological Laboratories (Pipersville, Pa.). Seven to eight week old female Sprague-Dawley rats [Crl:CD(SD)], weighing between ˜180-210 grams, were obtained from Charles River Laboratories and allowed to acclimate for a week. Animals were maintained on a 12 hour light-dark cycle. For intestinal tissue collection and evaluation of GI transit, rats were fasted for at least 18 hours before the experiment, with free access to water.
(§2) The ability of opioids to delay GI transit in rats was tested by either administering 0 (vehicle) 0.25, 1 and 2.5 mg/kg of morphine or 0 (vehicle), 0.25, 2.5 and 5 mg/kg of methadone (1.5 ml/kg dose volume) by IP injection. Water served as vehicle control. Ten minutes later, a 2 mL charcoal meal consisting of 10% activated charcoal (Sigma-Aldrich, St. Louis, Mo.) and 10% gum Arabic (Sigma-Aldrich, St. Louis, Mo.) in water was administered via oral gavage. Rats were euthanized 10 min after the charcoal meal via IP injection of 150 mg/kg Beuthanasia-D solution (sodium pentobarbital, 390 mg/mL). The small intestine was removed and the total length from the pyloric sphincter to the ileocecal junction was recorded, as well as the distance traveled by the leading edge of the charcoal. Intestinal transit was determined by calculating the ratio (expressed as a percentage) of the distance between the pyloric sphincter and the leading edge of the charcoal to the distance between the pyloric sphincter and the ileocecal junction.
To evaluate the ability of SP-333 to reverse methadone induced delayed GI transit, animals were administered 2.5 mg/kg of methadone by IP injection. Ten minutes later, an oral gavage of 0 (vehicle), 0.1, 0.5, 2.5, 5 and 50 mg/kg of SP-333 (1.5 ml/kg dose volume) was administered followed immediately by a 2 mL oral gavage of the charcoal meal. Ten minutes after the charcoal meal, animals were euthanized and intestinal transit was calculated as described above.

[2] = randomized 4-week study in OIC: SP-333 plasma levels; type: in vivo, human; details: for level at 0.5 h / level at 1 h: human, plasma, 6 mg, SP-333: 6 mg, read-out: SP-333 concentration; for level at 0.5 h: time 30; for level at 1 h: time 60
Description: (§3) To assess the safety and tolerability of SP-333. To evaluate the pharmacodynamic effects of SP-333. To evaluate the pharmacokinetic properties of SP-333.

[3] = test system: female Sprague-Dawley CD rats; assay: GI transit delay induced by repeated methadone administration in rats; type: in vivo, rat; details: SP-333 oral daily
Protocol: The ability of SP-333 to alleviate GI transit delay induced by repeated methadone administration was also evaluated in the similar manner. Female Sprague-Dawley CD rats 7 to 8 weeks of age (n=7/group) received via IP injection 16 doses of methadone (once daily; 7 doses @ 5 mg/kg and 9 doses @ 2.5 mg/kg). Ten minutes following each methadone dose, each group received an oral gavage of vehicle, 2.5, and 5 mg/kg of SP-333. At the end of the dosing regimen, animals were fasted overnight and GI transit was evaluated as described above.

[4] = test system: opioid naïve animals (rats); assay: GI transit after single oral gavage dose in opioid naïve rats; type: in vivo, rat
[5] = test system: female Sprague-Dawley rats; assay: morphine-induced delay in rat GI transit (charcoal meal); type: in vivo; details: 2.5 mg/kg morphine IP
Protocol: as §1, §2
To evaluate the ability of SP-333 to reverse morphine induced delayed GI transit, animals were administered 2.5 mg/kg of morphine by IP injection followed immediately by oral gavage of 0 (vehicle), 0.5, 2.5, 5 and 50 mg/kg of SP-333 (1.5 ml/kg dose volume). Water served as vehicle control. Charcoal meal was administered ten minutes later and animals were euthanized ten minutes after the charcoal meal and intestinal transit was calculated as described above.

[6] = test system: patients with symptoms of OIC treated for non-malignant chronic pain with opioid therapy; assay: randomized 4-week placebo-controlled dose-ranging study in OIC: efficacy; type: in vivo, human; details: for Week 4 change from baseline in SBMs, LS Mean (SE) / Week 4 change from baseline in SBMs, Mean (SD): observed cases, mITT population
Description: (§4) A Randomized, 4-Week, Double-Blind, Placebo-Controlled, Dose-Ranging Study to Assess the Safety and Efficacy of Sp-333 for the Treatment of Opioid-Induced Constipation (OIC) in Patients with Non-Malignant Chronic Pain Receiving Opioid Therapy
To evaluate the clinical efficacy of SP-333 compared with placebo, in patients with symptoms of OIC who have been treated for non-malignant chronic pain with opioid therapy.
(§5) The primary efficacy endpoint was to determine the mean change from baseline in the number of […] (SBMs) during Week 4 of the Treatment Period. Safety was assessed by analysis of the frequency of treatment-emergent adverse events (TEAEs), adverse events leading to withdrawal, and serious adverse events (SAEs).

[7] = test system: patients with symptoms of OIC treated for non-malignant chronic pain with opioid therapy; assay: randomized 4-week placebo-controlled dose-ranging study in OIC: safety; type: in vivo, human; details: for All AEs: preliminary safety top line
Description: as §4, §3, §5

[8] = then SP-333 0.5 mg/kg oral gavage
[9] = then SP-333 2.5 mg/kg oral gavage
[10] = then SP-333 5 mg/kg oral gavage
[11] = then SP-333 50 mg/kg oral gavage
[12] = 30 and/or 60 minute time points

For `CC(C)C[C@@H]1NC(=O)[C@H](CCC(=O)O)NC(=O)[C@@H](NC(=O)[C@H](CCC(=O)O)NC(=O)[C@H](CC(=O)O)NC(=O)[C@H](N)CC(N)=O)CSSC[C@@H]2NC(=O)[C@H](C)NC(=O)[C@H](C(C)C)NC(=O)[C@H](CC(N)=O)NC(=O)[C@H](C(C)C)NC(=O)[C@H](CSSC[C@@H](C(=O)N[C@H](CC(C)C)C(=O)O)NC(=O)CNC(=O)[C@H]([C@@H](C)O)NC2=O)NC1=O` [SP-333, dAsn^1-Asp^2-Glu^3-Cys^4-Glu^5-Leu^6-Cys^7-Val^8-Asn^9-Val^10-Ala^11-Cys^12-Thr^13-Gly^14-Cys^15-dLeu^16] (H-[dN]DECELCVNVACTGC[dL]-OH; disulfide 4-12, 7-15), the “GI transit in methadone-treated rats” value [1, 8] was 40%, the “GI transit in methadone-treated rats” value [1, 9] was 39% and the “GI transit in methadone-treated rats” value [1, 10] was 44%. For the same compound, the “GI transit in methadone-treated rats” value [1, 11] was 52%, the “increase in Isc” value (T84 cells monolayer; 0.01-10 μM at mucosal surface of T84 cells) was “concentration-dependent increase in Isc approaching saturation at 10 μM” and the “stimulation of Isc” value (T84 cells monolayer; treatment from the basolateral chamber, T84 monolayer) was “did not stimulate Isc”. The “maximum plasma level value observed” value [2, 12] was 2.71 ng/mL, the “number of patients in whom SP-333 plasma levels were observed” value [2, 12] was 4 patients and the level at 0.5 h ([2]; subject 006-004, visit week 1) was 2.71 ng/mL. It also gave a level at 1 h ([2]; subject 006-004, visit week 1) of 1.77 ng/mL, a level at 0.5 h ([2]; subject 007-013, visit week 1) of 1.38 ng/mL and a level at 0.5 h ([2]; subject 026-016, visit week 4) of 1.88 ng/mL. The level at 1 h ([2]; subject 026-016, visit week 4) was 1.5 ng/mL, the level at 0.5 h ([2]; subject 047-002, visit week 4) was 1.21 ng/mL and the “GI-transit delay caused by repeated methadone dosing” value ([3]; 16 daily methadone doses (7 at 5 mg/kg, 9 at 2.5 mg/kg)) was “normalized GI transit; also recorded: relieved the GI-transit delay; also recorded: relieves methadone-induced GI transit delay; also recorded: statistically significant improvement in GI transit delay”. For the same compound, the “GI-transit delay caused by repeated methadone dosing” value ([3]; methadone 2.5 mg/kg IP daily 9 days) was “relieved the GI-transit delay”, the “increase in small intestinal (GI) transit compared to vehicle controls” value (shortened to “increase in small intestinal”) ([4]; 0.05 mg/kg single oral gavage) was 5.6% and the “increase in small intestinal” value ([4]; 0.5 mg/kg single oral gavage) was 13%. For the same compound, the “increase in small intestinal” value ([4]; 5 mg/kg single oral gavage) was 23%, the “GI transit in morphine-treated rats” value [5, 8] was 27% and the “GI transit in morphine-treated rats” value [5, 9] was 37%. The “GI transit in morphine-treated rats” value [5, 10] was 46%, the “GI transit in morphine-treated rats” value [5, 11] was 48% and the “increase in Isc” value (rat jejunum tissue; 0.01-10 μM at mucosal surface of rat jejunum) was “concentration-dependent increase in Isc approaching saturation at 10 μM”. The “stimulation of Isc” value (rat jejunum tissue; treatment from the basolateral chamber, rat jejunum tissues) was “did not stimulate Isc”, the “primary endpoint (mean change from baseline in SBMs during Week 4)” value ([6]; 3 mg and 6 mg doses) was “statistically significant improvement” and the “Week 4 change from baseline in SBMs, Difference from Placebo” value (from here on “Week 4 change … Difference from Placebo”) ([6]; SP-333 1 mg) was 0.613 SBMs/week. For the same compound, the “Week 4 change from baseline in SBMs, LS Mean (SE)” value (from here on “Week 4 change from baseline … (SE)”) ([6]; SP-333 1 mg) was 2.436 (0.3800) SBMs/week, the “Week 4 change from baseline in SBMs, Mean (SD)” value (“Week 4 change … (SD)” for short) ([6]; SP-333 1 mg) was 2.429 (2.7363) SBMs/week and the “Week 4 change … Difference from Placebo” value ([6]; SP-333 3 mg) was 1.405 SBMs/week. The “Week 4 change from baseline … (SE)” value ([6]; SP-333 3 mg) was 3.227 (0.3858) SBMs/week, the “Week 4 change … (SD)” value ([6]; SP-333 3 mg) was 3.210 (3.8524) SBMs/week and the “Week 4 change … Difference from Placebo” value ([6]; SP-333 6 mg) was 1.528 SBMs/week. For the same compound, the “Week 4 change from baseline … (SE)” value ([6]; SP-333 6 mg) was 3.351 (0.3919) SBMs/week, the “Week 4 change … (SD)” value ([6]; SP-333 6 mg) was 3.379 (3.1424) SBMs/week and the Diarrhea ([7]; 1 mg (n 74)) was 3 (4%) n (%). The “Diarrhea Drop” value ([7]; 1 mg (n 74)) was 0 (0%) n (%), the “Drops for AE” value ([7]; 1 mg (n 74)) was 1 (1.4%) n (%) and the “All AEs” value ([7]; 1 mg (n 74)) was 19 (25.7%) n (%). For the same compound, the “patients with TEAE leading to study treatment discontinuation” value (“patients with TEAE leading” for short) ([7]; 1 mg group) was 1.4%, the Diarrhea ([7]; 3 mg (n 70)) was 4 (5.4%) n (%) and the “Diarrhea Drop” value ([7]; 3 mg (n 70)) was 0 (0%) n (%). For the same compound, the “Drops for AE” value ([7]; 3 mg (n 70)) was 2 (2.9%) n (%), the “serious adverse events: Chest Pain” value ([7]; 3 mg (n 70)) was 1 (1.4%) n (%) and the “All AEs” value ([7]; 3 mg (n 70)) was 16 (22.9%) n (%). For the same compound, the “patients with TEAE leading” value ([7]; 3 mg group) was 2.9%, the Diarrhea ([7]; 6 mg (n 72)) was 7 (9.7%) n (%) and the “Diarrhea Drop” value ([7]; 6 mg (n 72)) was 2 (2.9%) n (%). The “Drops for AE” value ([7]; 6 mg (n 72)) was 5 (6.9%) n (%), the “serious adverse events: Death (metastatic HCC)” value ([7]; 6 mg (n 72)) was 1 (1.4%) n (%) and the “All AEs” value ([7]; 6 mg (n 72)) was 23 (31.9%) n (%). The “patients with TEAE leading” value ([7]; 6 mg group) was 6.9%, the “percentage of patients experiencing at least 1 TEAE” value (“percentage of patients experiencing” for short) ([7]; SP-333 1 mg (placebo 27.4%)) was 25.7% and the “percentage of patients experiencing” value ([7]; SP-333 3 mg (placebo 27.4%)) was 22.9%. The “percentage of patients experiencing” value ([7]; SP-333 6 mg (placebo 27.4%)) was 31.9% and the “most frequently reported TEAE” value ([7]; in vivo) was “diarrhea”.
